Laboratory results published in patent US20030087906A1, “NITROGEN SUBSTITUTED BIARYL PURINE DERIVATIVES AS POTENT ANTIPROLIFERATIVE AGENTS” (priority 2001, published 2003).

Experiments:
UACC-62 = assay: NCI 60-cell line growth inhibition assay; assay type: cell-based; conditions: Homo sapiens; Melanoma, UACC-62
EKVX = assay: NCI 60-cell line growth inhibition assay; assay type: cell-based; conditions: Homo sapiens; Non-Small Cell Lung, EKVX
OVCAR-3 = assay: NCI 60-cell line growth inhibition assay; assay type: cell-based; conditions: Homo sapiens; Ovarian, OVCAR-3
MCF7 = assay: NCI 60-cell line growth inhibition assay; assay type: cell-based; conditions: Homo sapiens; Breast, MCF7
UACC-257 = assay: NCI 60-cell line growth inhibition assay; assay type: cell-based; conditions: Homo sapiens; Melanoma, UACC-257
SR = assay: NCI 60-cell line growth inhibition assay; assay type: cell-based; conditions: Homo sapiens; Leukemia, SR
SK-OV-3 = assay: NCI 60-cell line growth inhibition assay; assay type: cell-based; conditions: Homo sapiens; Ovarian, SK-OV-3
NCI-H460 = assay: NCI 60-cell line growth inhibition assay; assay type: cell-based; conditions: Homo sapiens; Non-Small Cell Lung, NCI-H460
COLO 205 = assay: NCI 60-cell line growth inhibition assay; assay type: cell-based; conditions: Homo sapiens; Colon, COLO 205
RXF 393 = assay: NCI 60-cell line growth inhibition assay; assay type: cell-based; conditions: Homo sapiens; Renal, RXF 393
HCC-2998 = assay: NCI 60-cell line growth inhibition assay; assay type: cell-based; conditions: Homo sapiens; Colon, HCC-2998
HL-60(TB) = assay: NCI 60-cell line growth inhibition assay; assay type: cell-based; conditions: Homo sapiens; Leukemia, HL-60(TB)
LOX IMVI = assay: NCI 60-cell line growth inhibition assay; assay type: cell-based; conditions: Homo sapiens; Melanoma, LOX IMVI
SNB-19 = assay: NCI 60-cell line growth inhibition assay; assay type: cell-based; conditions: Homo sapiens; CNS, SNB-19
MOLT-4 = assay: NCI 60-cell line growth inhibition assay; assay type: cell-based; conditions: Homo sapiens; Leukemia, MOLT-4
SF-295 = assay: NCI 60-cell line growth inhibition assay; assay type: cell-based; conditions: Homo sapiens; CNS, SF-295
SF-268 = assay: NCI 60-cell line growth inhibition assay; assay type: cell-based; conditions: Homo sapiens; CNS, SF-268
T-47D = assay: NCI 60-cell line growth inhibition assay; assay type: cell-based; conditions: Homo sapiens, T47D; Breast, T-47D
UO-31 = assay: NCI 60-cell line growth inhibition assay; assay type: cell-based; conditions: Homo sapiens; Renal, UO-31
IGROV1 = assay: NCI 60-cell line growth inhibition assay; assay type: cell-based; conditions: Homo sapiens, IGROV-1; Ovarian, IGROV1
PC-3 = assay: NCI 60-cell line growth inhibition assay; assay type: cell-based; conditions: Homo sapiens; Prostate, PC-3
ACHN = assay: NCI 60-cell line growth inhibition assay; assay type: cell-based; conditions: Homo sapiens; Renal, ACHN
SK-MEL-2 = assay: NCI 60-cell line growth inhibition assay; assay type: cell-based; conditions: Homo sapiens; Melanoma, SK-MEL-2
M14 = assay: NCI 60-cell line growth inhibition assay; assay type: cell-based; conditions: Homo sapiens; Melanoma, M14
[1] = MTD (NCI in vivo evaluation, Table 8); conditions: mouse
TK-10 = assay: NCI 60-cell line growth inhibition assay; assay type: cell-based; conditions: Homo sapiens; Renal, TK-10
U251 = assay: NCI 60-cell line growth inhibition assay; assay type: cell-based; conditions: Homo sapiens, U-251; CNS, U251
KM12 = assay: NCI 60-cell line growth inhibition assay; assay type: cell-based; conditions: Homo sapiens; Colon, KM12
NCI-H322M = assay: NCI 60-cell line growth inhibition assay; assay type: cell-based; conditions: Homo sapiens; Non-Small Cell Lung, NCI-H322M
SK-MEL-28 = assay: NCI 60-cell line growth inhibition assay; assay type: cell-based; conditions: Homo sapiens; Melanoma, SK-MEL-28
K-562 = assay: NCI 60-cell line growth inhibition assay; assay type: cell-based; conditions: Homo sapiens, K562; Leukemia, K-562
A549/ATCC = assay: NCI 60-cell line growth inhibition assay; assay type: cell-based; conditions: Homo sapiens; Non-Small Cell Lung, A549/ATCC
MDA-MB-231/ATCC = assay: NCI 60-cell line growth inhibition assay; assay type: cell-based; conditions: Homo sapiens; Breast, MDA-MB-231/ATCC
HT29 = assay: NCI 60-cell line growth inhibition assay; assay type: cell-based; conditions: Homo sapiens, HT-29; Colon, HT29
MDA-MB-435 = assay: NCI 60-cell line growth inhibition assay; assay type: cell-based; conditions: Homo sapiens; Breast, MDA-MB-435
HeLa S-3 cells = assay: Inhibition of cell growth of HeLa cells (SRB); assay type: cell-based, human; conditions: Homo sapiens, HeLa S3, 48 h, 2 days of treatment, replicate experiments
CCRF-CEM = assay: NCI 60-cell line growth inhibition assay; assay type: cell-based; conditions: Homo sapiens; Leukemia, CCRF-CEM
MALME-3M = assay: NCI 60-cell line growth inhibition assay; assay type: cell-based; conditions: Homo sapiens; Melanoma, MALME-3M
OVCAR-8 = assay: NCI 60-cell line growth inhibition assay; assay type: cell-based; conditions: Homo sapiens; Ovarian, OVCAR-8
HCT-15 = assay: NCI 60-cell line growth inhibition assay; assay type: cell-based; conditions: Homo sapiens; Colon, HCT-15
OVCAR-5 = assay: NCI 60-cell line growth inhibition assay; assay type: cell-based; conditions: Homo sapiens; Ovarian, OVCAR-5
SW-620 = assay: NCI 60-cell line growth inhibition assay; assay type: cell-based; conditions: Homo sapiens; Colon, SW-620
CAKI-1 = assay: NCI 60-cell line growth inhibition assay; assay type: cell-based; conditions: Homo sapiens; Renal, CAKI-1
[2] = system: Tumor Cells in Hollow Fibers; assay: NCI Hollow Fiber Assay (in vivo evaluation)

With CC[C@H](CO)Nc1nc(NCc2ccc(-c3cccc(C(F)(F)F)c3)cc2)c2ncn(C(C)C)c2n1 [Compound 38] as the compound, how does the GI50 (UACC-62) read?
Its GI50 is 1000 nM.

What about the GI50 (EKVX) of the same compound?
Its GI50 is 200 nM.

And the GI50 (OVCAR-3)?
The GI50 was 1000 nM.

And the GI50 (MCF7)?
The GI50 was 200 nM.

What about the GI50 (UACC-257) of the same compound?
The GI50 was 500 nM.

And the GI50 (SR)?
The GI50 was 3980 nM.

What about the GI50 (SK-OV-3) of the same compound?
Its GI50 is 3980 nM.

And the GI50 (NCI-H460)?
The GI50 was 3160 nM.

What about the GI50 (COLO 205) of the same compound?
The GI50 was 160 nM.

What about the GI50 (RXF 393) of the same compound?
Its GI50 is 130 nM.

What about the GI50 (HCC-2998) of the same compound?
Its GI50 is 7940 nM.

And the GI50 (HL-60(TB))?
Its GI50 is 40 nM.

What about the GI50 (LOX IMVI) of the same compound?
The GI50 was 400 nM.

What about the GI50 (SNB-19) of the same compound?
The GI50 was 500 nM.

What about the GI50 (MOLT-4) of the same compound?
The GI50 was 250 nM.

And the GI50 (SF-295)?
Its GI50 is 500 nM.

And the GI50 (SF-268)?
The GI50 was 200 nM.

And the GI50 (T-47D)?
The GI50 was 250 nM.

What about the GI50 (UO-31) of the same compound?
Its GI50 is 130 nM.

What about the GI50 (IGROV1) of the same compound?
The GI50 was 160 nM.

And the GI50 (PC-3)?
The GI50 was 400 nM.

And the GI50 (ACHN)?
The GI50 was 2000 nM.

What about the GI50 (SK-MEL-2) of the same compound?
The GI50 was 2000 nM.

What about the GI50 (M14) of the same compound?
Its GI50 is 50 nM.

What about the MTD [1] of the same compound?
Its MTD is 100 mg/kg.

What about the GI50 (TK-10) of the same compound?
Its GI50 is 400 nM.

What about the GI50 (U251) of the same compound?
The GI50 was 200 nM.

And the GI50 (KM12)?
The GI50 was 160 nM.

And the GI50 (NCI-H322M)?
Its GI50 is 400 nM.

And the GI50 (SK-MEL-28)?
The GI50 was 30 nM.

What about the GI50 (K-562) of the same compound?
The GI50 was 250 nM.

And the GI50 (A549/ATCC)?
Its GI50 is 130 nM.

What about the GI50 (MDA-MB-231/ATCC) of the same compound?
Its GI50 is 60 nM.

What about the GI50 (HT29) of the same compound?
Its GI50 is 250 nM.

And the GI50 (MDA-MB-435)?
Its GI50 is 50 nM.

What about the GI50 (HeLa S-3 cells) of the same compound?
The GI50 was 600 nM.

And the GI50 (CCRF-CEM)?
The GI50 was 200 nM.

And the GI50 (MALME-3M)?
Its GI50 is 250 nM.

What about the GI50 (OVCAR-8) of the same compound?
The GI50 was 250 nM.

And the GI50 (HCT-15)?
The GI50 was 250 nM.

And the GI50 (OVCAR-5)?
Its GI50 is 400 nM.

What about the GI50 (SW-620) of the same compound?
The GI50 was 30 nM.

What about the GI50 (CAKI-1) of the same compound?
Its GI50 is 200 nM.

And the “IP Score” value ([2]; IP fibers)?
The value was 0.

What about the SC score ([2]; SC fibers) of the same compound?
Its SC score is 4.
